# Test results reported in patent US20070049593A1 (priority 2004, published 2007).
# Where a name gives a salt, the structure may show the parent alone.
# Target: T1, HCV polymerase (Hepatitis C virus genotype 1b, UniProt P26663)
# T1 construct: a region encoding NS5B (J Virol 1991 March, 65(3), 1105-13, 544 amino acids after deletion of 47 amino acids on the C-terminal); 6xHis (C); made in house; host or cells: Escherichia coli
# Experiment: biochemical
# Set-up: species or system HCV BK strain
# Procedure, shortened: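 His-tagged NS5B (BK strain, 47-aa C-terminal deletion, E. coli-expressed) at 0.5 μg/ml copied 5 μg/ml run-off RNA bearing the HCV 3′ UTR with 2 μM UTP plus [3H]UTP, 50 μM ATP/GTP, in pH 7.5 Tris with 5 mM MgCl2, 25 °C, 90 min. TCA-precipitated RNA was counted and IC50 calculated.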
# T1 sequence (P26663 2420-2963): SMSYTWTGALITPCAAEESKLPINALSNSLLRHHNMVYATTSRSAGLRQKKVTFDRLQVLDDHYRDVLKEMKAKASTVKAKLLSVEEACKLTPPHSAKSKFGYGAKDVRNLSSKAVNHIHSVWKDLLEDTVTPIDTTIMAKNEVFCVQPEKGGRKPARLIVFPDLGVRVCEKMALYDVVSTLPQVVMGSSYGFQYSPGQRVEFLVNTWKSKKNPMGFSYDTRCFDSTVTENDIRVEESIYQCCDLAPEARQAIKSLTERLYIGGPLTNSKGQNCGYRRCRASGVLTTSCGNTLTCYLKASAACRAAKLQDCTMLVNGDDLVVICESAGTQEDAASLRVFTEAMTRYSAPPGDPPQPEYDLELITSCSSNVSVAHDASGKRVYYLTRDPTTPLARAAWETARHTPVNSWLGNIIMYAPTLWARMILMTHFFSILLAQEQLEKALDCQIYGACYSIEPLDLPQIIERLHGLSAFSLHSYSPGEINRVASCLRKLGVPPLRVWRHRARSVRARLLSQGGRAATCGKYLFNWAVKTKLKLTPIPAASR
row,Structure (SMILES),IC50 [nM]
1,"COc1ccc2c(c1)OCCn1c-2c(C2CCCCC2)c2ccc(C(=O)N[C@@H](Cc3ccc(NC(C)=O)cc3)C(=O)O)cc21 [Example 2-340, (S)-3-(4-acetylaminophenyl)-2-[(12-cyclohexyl-3-methoxy-6,7-dihydro-5-oxa-7a-azadibenzo[a,e]azulene-9-carbonyl)amino]propionic acid]",< 100
2,"COc1ccc2c(c1)OCCn1c-2c(C2CCCCC2)c2ccc(C(=O)N[C@@H](Cc3ccc(NS(C)(=O)=O)cc3)C(=O)O)cc21 [Example 2-341, (S)-2-[(12-cyclohexyl-3-methoxy-6,7-dihydro-5-oxa-7a-azadibenzo[a,e]azulene-9-carbonyl)amino]-3-(4-methanesulfonylaminophenyl)propionic acid]",< 100
3,COCCCN(CCN1CCCCC1)c1cccc2c1OCCn1c-2c(C2CCCCC2)c2ccc(C(=O)O)cc21 [Example 2-342],< 100
4,"CN(C)Cc1ccccc1-c1cccc2c1OCCn1c-2c(C2CCCCC2)c2ccc(C(=O)O)cc21 [Example 2-343, 12-cyclohexyl-4-(2-dimethylaminomethylphenyl)-6,7-dihydro-5-oxa-7a-azadibenzo[a,e]azulene-9-carboxylic acid]",< 100
5,"O=C(O)c1ccc2c(C3CCCCC3)c3n(c2c1)CCOc1c-3cccc1N1CCCCC1=O [Example 2-344, 12-cyclohexyl-4-(2-oxopiperidin-1-yl)-6,7-dihydro-5-oxa-7a-azadibenzo[a,e]azulene-9-carboxylic acid]",< 100
6,"O=C(O)c1ccc2c(C3CCCCC3)c3n(c2c1)CCOc1c-3cccc1N1CCCCC1 [Example 2-345, 12-cyclohexyl-4-(piperidin-1-yl)-6,7-dihydro-5-oxa-7a-azadibenzo[a,e]azulene-9-carboxylic acid]",< 100
7,"COc1ccc2c(c1)OCCn1c-2c(C2CCCCC2)c2ccc(C(=O)NC(C)(C)c3nc4ccc(C(=O)N(C)C)cc4[nH]3)cc21 [Example 2-346, N-[1-(6-dimethylcarbamoyl-1H-benzimidazol-2-yl)-1-methylethyl]-12-cyclohexyl-3-methoxy-6,7-dihydro-5-oxa-7a-azadibenzo[a,e]azulene-9-carboxamide]",< 100
8,"COc1ccc2c(c1)OCCn1c-2c(C2CCCCC2)c2ccc(C(=O)NC(C)(C)c3nc4cc(C(=O)O)c(OC)cc4[nH]3)cc21 [Example 2-347, 2-{1-[(12-cyclohexyl-3-methoxy-6,7-dihydro-5-oxa-7a-azadibenzo[a,e]azulene-9-carbonyl)amino]-1-methylethyl}-6-methoxy-1H-benzimidazole-5-carboxylic acid]",< 100
9,"COc1ccc2c(c1)OCCn1c-2c(C2CCCCC2)c2ccc(C(=O)NC(C)(C)c3nc4ccccc4o3)cc21 [Example 2-348, N-[1-(benzoxazol-2-yl)-1-methylethyl]-12-cyclohexyl-3-methoxy-6,7-dihydro-5-oxa-7a-azadibenzo[a,e]azulene-9-carboxamide]",< 100
10,"COC(=O)c1ccc(NC(=O)C(C)(C)NC(=O)c2ccc3c(C4CCCCC4)c4n(c3c2)CCOc2cc(OC)ccc2-4)cc1 [Example 2-349, methyl 4-{2-[(12-cyclohexyl-3-methoxy-6,7-dihydro-5-oxa-7a-azadibenzo[a,e]azulene-9-carbonyl)amino]-2-methylpropionylamino}benzoate]",< 100
11,"COc1ccc2c(c1)OCCn1c-2c(C2CCCCC2)c2ccc(C(=O)NC(C)(C)C(=O)Nc3ccc(C(=O)O)cc3)cc21 [Example 2-350, 4-{2-[(12-cyclohexyl-3-methoxy-6,7-dihydro-5-oxa-7a-azadibenzo[a,e]azulene-9-carbonyl)amino]-2-methylpropionylamino}benzoic acid]",< 100
12,"CC(C)(NC(=O)c1ccc2c(C3CCCCC3)c3n(c2c1)CCOc1ccccc1-3)c1nc2ccccc2n1CCO [Example 2-351, N-{1-[1-(2-hydroxyethyl)-1H-benzimidazol-2-yl]-1-methylethyl}-12-cyclohexyl-6,7-dihydro-5-oxa-7a-azadibenzo[a,e]azulene-9-carboxamide]",< 100
13,"COC(=O)[C@H](Cc1cccc(C(F)(F)F)c1)NC(=O)c1ccc2c(C3CCCCC3)c3n(c2c1)CCOc1cc(OC)ccc1-3 [Example 2-352, methyl (S)-2-[(12-cyclohexyl-3-methoxy-6,7-dihydro-5-oxa-7a-azadibenzo[a,e]azulene-9-carbonyl)amino]-3-(3-trifluoromethylphenyl)propionate]",< 100
14,"COC(=O)C(Cc1cccc(O)c1)NC(=O)c1ccc2c(C3CCCCC3)c3n(c2c1)CCOc1cc(OC)ccc1-3 (stereo not shown) [Example 2-353, methyl 2-[(12-cyclohexyl-3-methoxy-6,7-dihydro-5-oxa-7a-azadibenzo[a,e]azulene-9-carbonyl)amino]-3-(3-hydroxyphenyl)propionate]",< 100
15,"COc1ccc2c(c1)OCCn1c-2c(C2CCCCC2)c2ccc(C(=O)N[C@@H](Cc3cccc(C(F)(F)F)c3)C(=O)O)cc21 [Example 2-354, (S)-2-[(12-cyclohexyl-3-methoxy-6,7-dihydro-5-oxa-7a-azadibenzo[a,e]azulene-9-carbonyl)amino]-3-(3-trifluoromethylphenyl)propionic acid]",< 100
16,"COc1ccc2c(c1)OCCn1c-2c(C2CCCCC2)c2ccc(C(=O)NC(Cc3cccc(O)c3)C(=O)O)cc21 (stereo not shown) [Example 2-355, 2-[(12-cyclohexyl-3-methoxy-6,7-dihydro-5-oxa-7a-azadibenzo[a,e]azulene-9-carbonyl)amino]-3-(3-hydroxyphenyl)propionic acid]",< 100
17,"COC(=O)[C@H](Cc1ccncc1)NC(=O)c1ccc2c(C3CCCCC3)c3n(c2c1)CCOc1cc(OC)ccc1-3 [Example 2-356, methyl (S)-2-[(12-cyclohexyl-3-methoxy-6,7-dihydro-5-oxa-7a-azadibenzo[a,e]azulene-9-carbonyl)amino]-3-(pyridin-4-yl)propionate]",< 100
18,"O=C(O)c1ccc2c(C3CCCCC3)c3n(c2c1)CCOc1c-3cccc1N(CC(=O)N1CCCOCC1)CC(=O)N1CCCOCC1 [Example 2-357, 4-{bis[2-(1,4-oxazepan-4-yl)-2-oxoethyl]amino}-12-cyclohexyl-6,7-dihydro-5-oxa-7a-azadibenzo[a,e]azulene-9-carboxylic acid]",< 100
19,"CC(C)(NC(=O)c1ccc2c(C3CCCCC3)c3n(c2c1)CCOc1ccccc1-3)C(=O)N1CCC(O)(c2ccc(F)cc2)CC1 [Example 2-358, N-{2-[4-(4-fluorophenyl)-4-hydroxypiperidin-1-yl]-1,1-dimethyl-2-oxoethyl]-12-cyclohexyl-6,7-dihydro-5-oxa-7a-azadibenzo[a,e]azulene-9-carboxamide]",< 100
20,"O=C(O)c1ccc2c(C3CCCCC3)c3n(c2c1)CCOc1c-3cccc1N(CC(=O)N1CCOCC1)CC(=O)N1CCOCC1 [Example 2-359, 4-{bis[2-(morpholin-4-yl)-2-oxoethyl]amino}-12-cyclohexyl-6,7-dihydro-5-oxa-7a-azadibenzo[a,e]azulene-9-carboxylic acid]",< 100
21,"O=C(O)c1ccc2c(C3CCCCC3)c3n(c2c1)CCOc1c-3cccc1N(CCN1CCCOCC1)CCN1CCCOCC1 [Example 2-360, 4-{bis[2-(1,4-oxazepan-4-yl)ethyl]amino}-12-cyclohexyl-6,7-dihydro-5-oxa-7a-azadibenzo[a,e]azulene-9-carboxylic acid trihydrochloride]",< 100
22,"O=C(O)c1ccc2c(C3CCCCC3)c3n(c2c1)CCOc1c-3cccc1N(CCN1CCOCC1)CCN1CCOCC1 [Example 2-361, 4-{bis[2-(morpholin-4-yl)ethyl]amino}-12-cyclohexyl-6,7-dihydro-5-oxa-7a-azadibenzo[a,e]azulene-9-carboxylic acid trihydrochloride]",< 100
23,"COC(=O)Nc1ccc(C[C@H](NC(=O)c2ccc3c(C4CCCCC4)c4n(c3c2)CCOc2cc(OC)ccc2-4)C(=O)OC)cc1 [Example 2-362, methyl (S)-2-[(12-cyclohexyl-3-methoxy-6,7-dihydro-5-oxa-7a-azadibenzo[a,e]azulene-9-carbonyl)amino]-3-(4-methoxycarbonylaminophenyl)propionate]",< 100
24,"COC(=O)[C@H](Cc1ccc(O)c(Cl)c1)NC(=O)c1ccc2c(C3CCCCC3)c3n(c2c1)CCOc1cc(OC)ccc1-3 [Example 2-363, methyl (S)-3-(3-chloro-4-hydroxyphenyl)-2-[(12-cyclohexyl-3-methoxy-6,7-dihydro-5-oxa-7a-azadibenzo[a,e]azulene-9-carbonyl)amino]propionate]",< 100
25,"COC(=O)Nc1ccc(C[C@H](NC(=O)c2ccc3c(C4CCCCC4)c4n(c3c2)CCOc2cc(OC)ccc2-4)C(=O)O)cc1 [Example 2-364, (S)-2-[(12-cyclohexyl-3-methoxy-6,7-dihydro-5-oxa-7a-azadibenzo[a,e]azulene-9-carbonyl)amino]-3-(4-methoxycarbonylaminophenyl)propionic acid]",< 100
26,"COc1ccc2c(c1)OCCn1c-2c(C2CCCCC2)c2ccc(C(=O)N[C@@H](Cc3ccc(O)c(Cl)c3)C(=O)O)cc21 [Example 2-365, (S)-3-(3-chloro-4-hydroxyphenyl)-2-[(12-cyclohexyl-3-methoxy-6,7-dihydro-5-oxa-7a-azadibenzo[a,e]azulene-9-carbonyl)amino]propionic acid]",< 100
27,"COC(=O)[C@H](CCc1ccc(O)cc1)NC(=O)c1ccc2c(C3CCCCC3)c3n(c2c1)CCOc1cc(OC)ccc1-3 [Example 2-366, methyl (S)-2-[(12-cyclohexyl-3-methoxy-6,7-dihydro-5-oxa-7a-azadibenzo[a,e]azulene-9-carbonyl)amino]-4-(4-hydroxyphenyl)butyrate]",< 100
28,"COc1ccc2c(c1)OCCn1c-2c(C2CCCCC2)c2ccc(C(=O)NC(C)(C)c3nc4cc(N(C)C)ccc4[nH]3)cc21 [Example 2-367, N-[1-(5-dimethylamino-1H-benzimidazol-2-yl)-1-methylethyl]-12-cyclohexyl-3-methoxy-6,7-dihydro-5-oxa-7a-azadibenzo[a,e]azulene-9-carboxamide]",< 100
